# Experimental data: US11464770B2, “Anticancer pharmaceutical composition” (NATIONAL CANCER CENTER, priority 2016, dated 2022)
# Like-named read-outs stand apart in the source and are kept apart here.
# Key:
# [1] = tested on: breast cancer cell lines (e.g. MDA-MB-231, SK-BR-3, MDA-MB-468, HCC1954); experiment: Cell based assay, cell viability (CellTiter-Glo), breast cancer cell lines; conditions: 72 hours, CellTiter-Glo
# Method: (§1) Commercially available bladder cancer, prostate cancer, lung cancer, breast cancer, blood cancer, pancreatic cancer, colorectal cancer, brain cancer, neuroblastoma, melanoma, liver cancer, cervical carcinoma, ovarian cancer, renal cancer, and papilloma cell lines were each treated with trypsin-EDTA and cultured, followed by being seeded in each well of a 96 well plate. After 24 hours of treatment at constant temperature, the respective cells were treated with the candidate compound so that a final concentration became 0 to 2 μM. The treated cells were additionally cultured for 72 hours, and cell viability was measured by using an ATP detection method (CellTiter-Glo® Luminescent Cell Viability Assay, Promega).
# [2] = tested on: RT4: human urinary bladder transitional cell papilloma; experiment: Cell based assay, cytotoxicity in RT4 papilloma cells (selectivity); conditions: Homo sapiens, RT-4; RT4 cells
# Method: as §1, with “After 24 hours of treatment at constant temperature, the respective cells were treated with the candidate compound so that a final concentration became 0 to 2 μM.” left out
# [3] = Breast cancer cell line MDA-MB-231-L/DOX, read-out: IC50, MDA-MB-231-L/DOX
# [4] = Homo sapiens, Breast cancer cell line BT-20, read-out: IC50, BT-20
# [5] = Homo sapiens, Breast cancer cell line HCC1395, read-out: IC50, HCC1395
# [6] = Homo sapiens, Breast cancer cell line HCC1954, read-out: IC50, HCC1954
# [7] = Homo sapiens, Breast cancer cell line JIMT-1, read-out: IC50, JIMT-1
# [8] = Homo sapiens, Breast cancer cell line MCF7, read-out: IC50, MCF7
# [9] = Homo sapiens, Breast cancer cell line MDA-MB-231, read-out: IC50, MDA-MB-231
# [10] = Homo sapiens, Breast cancer cell line MDA-MB-468, read-out: IC50, MDA-MB-468
# [11] = Homo sapiens, Breast cancer cell line SK-BR-3, read-out: IC50, SK-BR-3
Structure (SMILES),"IC50 [1, 3] [nM]","IC50 [1, 4] [nM]","IC50 [1, 5] [nM]","IC50 [1, 6] [nM]","IC50 [1, 7] [nM]","IC50 [1, 8] [nM]","IC50 [1, 9] [nM]","IC50 [1, 10] [nM]","IC50 [1, 11] [nM]",IC50 [2] [nM]
"CC(=O)c1c(S(C)(=O)=O)n(C(=O)c2ccc(Br)cc2)c2c(Br)ccc(Cl)c2c1=O [Compound 21, 3-acetyl-8-bromo-1-(4-bromobenzoyl)-5-chloro-2-(methylsulfonyl)quinolin-4(1H)-one]",> 2000,> 2000,> 10000,> 2000,> 10000,> 2000,> 2000,> 2000,> 2000,> 10000
"CC(=O)c1c([S+](C)[O-])n(Cc2ccc(F)c(Cl)c2)c2c(Br)ccc(Cl)c2c1=O (stereo not shown) [Compound 22, 3-acetyl-8-bromo-5-chloro-1-(3-chloro-4-fluorobenzyl)-2-(methylsulfinyl)quinolin-4(1H)-one]",> 2000,> 2000,> 10000,> 2000,> 10000,> 2000,> 2000,> 2000,> 2000,> 10000
"CC(=O)c1c(SCc2ccccc2)n(C(=O)c2ccc(Br)cc2)c2c(Br)ccc(Cl)c2c1=O [Compound 23, 3-acetyl-2-(benzylthio)-8-bromo-1-(4-bromobenzoyl)-5-chloroquinolin-4(1H)-one]",> 2000,> 2000,> 10000,> 2000,> 10000,> 2000,> 2000,> 2000,> 2000,> 10000
"CC(=O)c1c(SC(C)C)[nH]c2c(Br)ccc(Cl)c2c1=O [Compound 24, 3-acetyl-8-bromo-5-chloro-2-(isopropylthio)quinolin-4(1H)-one]",> 2000,> 2000,> 10000,> 2000,> 10000,> 2000,> 2000,> 2000,> 2000,> 10000
"CC(=O)c1c([S+]([O-])C(C)C)[nH]c2c(Br)ccc(Cl)c2c1=O (stereo not shown) [Compound 25, 3-acetyl-8-bromo-5-chloro-2-(isopropylsulfinyl)quinolin-4(1H)-one]",> 2000,> 2000,> 10000,> 2000,> 10000,> 2000,> 2000,> 2000,1720,> 10000
"CC(=O)c1c([S+]([O-])C(C)c2ccccc2)[nH]c2c(Br)ccc(Cl)c2c1=O (stereo not shown) [Compound 26, 3-acetyl-8-bromo-5-chloro-2-((1-phenylethyl)sulfinyl)quinolin-4(1H)-one]",> 2000,> 2000,> 10000,> 2000,> 10000,> 2000,> 2000,> 2000,> 2000,> 10000
"CC(=O)c1c(SCc2cccc(C#N)c2)[nH]c2c(Br)ccc(Cl)c2c1=O [Compound 27, 3-(((3-acetyl-8-bromo-5-chloro-4-oxo-1,4-dihydroquinolin-2-yl)thio)methyl)benzonitrile]",> 2000,> 2000,> 10000,> 2000,> 10000,> 2000,> 2000,> 2000,> 2000,> 10000
"CC(=O)c1c([S+]([O-])Cc2cccc(C#N)c2)[nH]c2c(Br)ccc(Cl)c2c1=O (stereo not shown) [Compound 28, 3-(((3-acetyl-8-bromo-5-chloro-4-oxo-1,4-dihydroquinolin-2-yl)sulfinyl)methyl)benzonitrile]",> 2000,> 2000,> 10000,> 2000,> 10000,> 2000,1410,> 2000,660,> 10000
"CC(=O)c1c(SCc2ccc(F)c(Cl)c2)[nH]c2c(Br)ccc(Cl)c2c1=O [Compound 30, 3-acetyl-8-bromo-5-chloro-2-((3-chloro-4-fluorobenzyl)thio)quinolin-4(1H)-one]",> 2000,> 2000,> 10000,> 2000,> 10000,> 2000,> 2000,> 2000,> 2000,> 10000
"CC(=O)c1c(SCc2ccc([N+](=O)[O-])cc2)[nH]c2c(Br)ccc(Cl)c2c1=O [Compound 32, 3-acetyl-8-bromo-5-chloro-2-((4-nitrobenzyl)thio)quinolin-4(1H)-one]",> 2000,> 2000,> 10000,> 2000,> 10000,> 2000,> 2000,> 2000,> 2000,> 10000
"CSc1c(C(C)=O)c(=O)c2c(Cl)ccc(Br)c2n1S(C)(=O)=O [Compound 35, 3-acetyl-8-bromo-5-chloro-1-(methylsulfonyl)-2-(methylthio)quinolin-4(1H)-one]",> 2000,> 2000,> 10000,> 2000,> 10000,> 2000,> 2000,> 2000,> 2000,> 10000
"CC(=O)c1c([S+](C)[O-])n(S(=O)(=O)C(F)(F)F)c2c(Br)ccc(Cl)c2c1=O (stereo not shown) [Compound 36, 3-acetyl-8-bromo-5-chloro-2-(methylsulfinyl)-1-((trifluoromethyl)sulfonyl)quinolin-4(1H)-one]",> 2000,> 2000,> 10000,> 2000,> 10000,> 2000,> 2000,> 2000,> 2000,> 10000
"CSc1c(C(C)=O)c(=O)c2c(Cl)ccc(Br)c2n1S(=O)(=O)c1ccc(Cl)cc1 [Compound 37, 3-acetyl-8-bromo-5-chloro-1-((4-chlorophenyl)sulfonyl)-2-(methylthio)quinolin-4(1H)-one]",> 2000,> 2000,> 10000,> 2000,> 10000,> 2000,> 2000,> 2000,> 2000,> 10000
"CSc1c(C(C)=O)c(=O)c2c(Cl)ccc(Br)c2n1S(=O)(=O)c1ccc([N+](=O)[O-])cc1 [Compound 38, 3-acetyl-8-bromo-5-chloro-2-(methylthio)-1-((4-nitrophenyl)sulfonyl)quinolin-4(1H)-one]",> 2000,> 2000,> 10000,> 2000,> 10000,> 2000,> 2000,> 2000,> 2000,> 10000
"CCS(=O)(=O)n1c([S+](C)[O-])c(C(C)=O)c(=O)c2c(Cl)ccc(Br)c21 (stereo not shown) [Compound 39, 3-acetyl-8-bromo-5-chloro-1-(ethylsulfonyl)-2-(methylsulfinyl)quinolin-4(1H)-one]",> 2000,> 2000,> 10000,> 2000,> 10000,> 2000,> 2000,> 2000,> 2000,> 10000
"CSc1c(C(C)=O)c(=O)c2c(Cl)ccc(Br)c2n1S(=O)(=O)c1ccc(C(C)(C)C)cc1 [Compound 40, 3-acetyl-8-bromo-1-((4-(tert-butyl)phenyl)sulfonyl)-5-chloro-2-(methylthio)quinolin-4(1H)-one]",> 2000,> 2000,> 10000,> 2000,> 10000,> 2000,> 2000,> 2000,> 2000,> 10000
"CC(=O)c1c(S(C)(=O)=O)n(S(=O)(=O)c2ccc(C(C)(C)C)cc2)c2c(Br)ccc(Cl)c2c1=O [Compound 41, 3-acetyl-8-bromo-1-((4-(tert-butyl)phenyl)sulfonyl)-5-chloro-2-(methylsulfonyl)quinolin-4(1H)-one]",> 2000,> 2000,> 10000,> 2000,> 10000,> 2000,> 2000,> 2000,> 2000,> 10000
"CC(=O)c1c([S+](C)[O-])n(S(=O)(=O)c2ccc(C(C)(C)C)cc2)c2c(Br)ccc(Cl)c2c1=O (stereo not shown) [Compound 42, 3-acetyl-8-bromo-1-((4-(tert-butyl)phenyl)sulfonyl)-5-chloro-2-(methylsulfinyl)quinolin-4(1H)-one]",> 2000,> 2000,> 10000,> 2000,> 10000,> 2000,> 2000,> 2000,1570,> 10000
"CC(=O)c1c(SCc2cc(Cl)ccc2Cl)[nH]c2c(Br)ccc(Cl)c2c1=O [Compound 43, 3-acetyl-8-bromo-5-chloro-2-((2,5-dichlorobenzyl)thio)quinolin-4(1H)-one]",> 2000,> 2000,> 10000,> 2000,> 10000,> 2000,> 2000,> 2000,> 2000,> 10000
"CC(=O)c1c(SCc2cc(F)cc(F)c2)[nH]c2c(Br)ccc(Cl)c2c1=O [Compound 45, 3-acetyl-8-bromo-5-chloro-2-((3,5-difluorobenzyl)thio)quinolin-4(1H)-one]",> 2000,> 2000,> 10000,> 2000,> 10000,> 2000,> 2000,> 2000,> 2000,> 10000
"CC(=O)c1c(SCc2cccc(I)c2)[nH]c2c(Br)ccc(Cl)c2c1=O [Compound 47, 3-acetyl-8-bromo-5-chloro-2-((3-iodobenzyl)thio)quinolin-4(1H)-one]",> 2000,> 2000,> 10000,> 2000,> 10000,> 2000,> 2000,> 2000,> 2000,> 10000
"CC(=O)c1c([S+]([O-])Cc2cccc(I)c2)[nH]c2c(Br)ccc(Cl)c2c1=O (stereo not shown) [Compound 48, 3-acetyl-8-bromo-5-chloro-2-((3-iodobenzyl)sulfinyl)quinolin-4(1H)-one]",> 2000,> 2000,> 10000,> 2000,> 10000,> 2000,> 2000,> 2000,> 2000,> 10000
